Measured values from patent US8354423B2, “Insecticidal spironindane derivatives” (priority 2003, dated 2013).

- melting point: 225 °C
SMILES: O=C(N/N=C1\CC2(CCN(C/C=C/c3ccc(Cl)cc3)CC2)c2ccccc21)Nc1ccc(OC(F)(F)F)cc1
